According to ChEMBL document CHEMBL6092217 (Eur J Med Chem, 2024):

Legend:
[1] = system: HepG2; assay: Antiproliferative activity against human HepG2 cells assessed as cell viability incubated for 72 hrs by MTT assay; type: functional, cell-based; settings: HepG2, 72 h
[2] = system: MCF7; assay: Antiproliferative activity against human MCF7 cells assessed as cell viability incubated for 72 hrs by MTT assay; type: functional, cell-based; settings: MCF7, 72 h
[3] = system: RKO; assay: Antiproliferative activity against human RKO cells assessed as cell viability incubated for 72 hrs by MTT assay; type: functional, cell-based
[4] = system: PC-3; assay: Antiproliferative activity against human PC-3 cells assessed as cell viability incubated for 72 hrs by MTT assay; type: functional, cell-based; settings: PC-3, 72 h
[5] = system: MDA-MB-231; assay: cells; settings: Homo sapiens, MDA-MB-231, 72 h
Description: Antiproliferative activity against human MDA-MB-231 cells assessed as cell viability incubated for 72 hrs by MTT assay

[6] = system: HT-29; assay: Antiproliferative activity against human HT-29 cells assessed as cell viability incubated for 72 hrs by MTT assay; type: functional, cell-based; settings: HT-29, 72 h
[7] = target: Tubulin; assay: Inhibition of tubulin polymerization (unknown origin) in presence of GTP by fluorescence plate reader analysis; type: protein-complex assay, Homo sapiens
[8] = Binding affinity to porcine brain tubulin assessed as dissociation constant measured after 20 mins by fluorescence based analysis; parameters: species or system Sus scrofa

Row | SMILES | IC50 [1] [nM] | IC50 [2] [nM] | IC50 [3] [nM] | IC50 [4] [nM] | IC50 [5] [nM] | IC50 [6] [nM] | IC50 [7] [µM] | Kd [8] [µM]
1 | COc1ccc(N(C)c2nc(/C=C/c3cccc(Cl)c3)nc3ccccc23)cc1 | 1730 | 1060 | 1370 | 2180 | 4170 | 710 | – | –
2 | CN(c1ccc2occc2c1)c1nc(/C=C/c2ccccc2)nc2ccccc12 | 4000 | 2560 | 1590 | 7410 | 6570 | 2840 | – | –
3 | COc1ccc(N(C)c2nc(/C=C/c3ccccc3OC)nc3ccccc23)cc1 | > 10000 | > 10000 | > 10000 | 740 | > 10000 | 8160 | – | –
4 | COc1cc(OC)cc(N(C)c2nc(/C=C/c3ccccc3)nc3ccccc23)c1 | > 10000 | > 10000 | > 10000 | > 10000 | > 10000 | > 10000 | – | –
5 | COc1ccc(N(C)c2nc(/C=C/c3ccc(OC)c(OC)c3OC)nc3ccccc23)cc1 | 530 | 410 | 220 | 490 | 600 | 170 | – | –
6 | COc1ccc(N(C)c2nc(/C=C/c3cccc(F)c3)nc3ccccc23)cc1 | 240 | 260 | 170 | 90 | 1250 | 160 | – | –
7 | CN(c1ccc2c(c1)OCCO2)c1nc(/C=C/c2ccccc2)nc2ccccc12 | 3440 | 320 | 410 | 1460 | 2060 | 670 | – | –
8 | COc1ccc(N(C)c2nc(/C=C/c3cccc(Cl)c3Cl)nc3ccccc23)cc1 | > 10000 | > 10000 | 5750 | 2990 | > 10000 | 1420 | – | –
9 | COc1ccc(N(C)c2nc(/C=C/c3ccccc3)nc3ccccc23)cc1 | 1190 | 230 | 250 | 340 | 1360 | 250 | – | –
10 | COc1ccc(N(C)c2nc(C)nc3ccccc23)cc1 [VERUBULIN] | 13 | 14 | 9 | 10 | 23 | 7 | – | –
11 | COc1ccc(N(C)c2nc(/C=C/c3ccccc3)nc3ccccc23)c(OC)c1 | 8220 | 1900 | 650 | 2750 | 5730 | 750 | – | –
12 | CN(c1ccccc1)c1nc(/C=C/c2ccccc2)nc2ccccc12 | > 10000 | > 10000 | > 10000 | > 10000 | > 10000 | > 10000 | – | –
13 | CN(c1ccc2c(c1)OCO2)c1nc(/C=C/c2ccccc2)nc2ccccc12 | 1140 | 1640 | 720 | 1070 | 3680 | 2790 | – | –
14 | COc1ccc(/C=C/c2nc(N(C)c3ccc(OC)cc3)c3ccccc3n2)cc1 | 4480 | 3660 | 940 | 2750 | 1800 | 890 | – | –
15 | CN(c1ccc(F)cc1)c1nc(/C=C/c2ccccc2)nc2ccccc12 | 910 | 1080 | 540 | 1110 | 2850 | 530 | – | –
16 | COc1ccc(N(C)c2nc(/C=C/c3ccc([N+](=O)[O-])cc3)nc3ccccc23)cc1 | 7010 | 5610 | 4270 | 2850 | 9480 | 3240 | – | –
17 | COc1ccc(N(C)c2nc(/C=C/c3cccc(OC)c3)nc3cccc(F)c23)cc1 | 410 | 460 | 150 | 360 | 800 | 240 | – | –
18 | CN(c1ccc(OC(F)(F)F)cc1)c1nc(/C=C/c2ccccc2)nc2ccccc12 | > 10000 | > 10000 | > 10000 | > 10000 | > 10000 | > 10000 | – | –
19 | COc1ccc(N(C)c2nc(/C=C/c3cccc(F)c3)nc3cccnc23)cc1 | 680 | 1180 | 510 | 330 | 2880 | 200 | – | –

Row | SMILES | IC50 [1] [nM] | IC50 [2] [nM] | IC50 [3] [nM] | IC50 [4] [nM] | IC50 [5] [nM] | IC50 [6] [nM] | IC50 [7] [µM] | Kd [8] [µM]
20 | COc1cccc(OC)c1N(C)c1nc(/C=C/c2ccccc2)nc2ccccc12 | > 10000 | > 10000 | > 10000 | > 10000 | > 10000 | > 10000 | – | –
21 | COc1ccc(N(C)c2nc(/C=C/c3ccc(Cl)cc3)nc3ccccc23)cc1 | 940 | 610 | 460 | 620 | 830 | 310 | – | –
22 | COc1ccc(N(C)c2nc(/C=C/c3cc(OC)c(OC)c(OC)c3)nc3ccccc23)cc1 | > 10000 | > 10000 | > 10000 | 8340 | > 10000 | > 10000 | – | –
23 | COc1ccc(N(C)c2nc(/C=C/c3ccc(C)cc3)nc3ccccc23)cc1 | 3010 | 3110 | 1710 | 460 | 2560 | 460 | – | –
24 | COc1ccc(N(C)c2nc(/C=C/c3ccc(Cl)cc3Cl)nc3ccccc23)cc1 | > 10000 | > 10000 | 1760 | 1450 | > 10000 | 4750 | – | –
25 | COc1cc(N(C)c2nc(/C=C/c3ccccc3)nc3ccccc23)cc(OC)c1OC | > 10000 | > 10000 | > 10000 | > 10000 | > 10000 | > 10000 | – | –
26 | COc1ccc(N(C)c2nc(/C=C/c3cccc([N+](=O)[O-])c3)nc3ccccc23)cc1 | 540 | 1470 | 490 | 410 | 810 | 300 | – | –
27 | COc1ccc(N(C)c2nc(/C=C/c3cccc(Br)c3)nc3ccccc23)cc1 | > 10000 | > 10000 | > 10000 | 7380 | 9860 | > 10000 | – | –
28 | COc1ccc(N(C)c2nc(/C=C/c3ccc(OC)cc3OC)nc3ccccc23)cc1 | 220 | 140 | 120 | 110 | 240 | 47 | > 10 | 43.3
29 | COc1ccc(N(C)c2nc(/C=C/c3cccc(OC)c3OC)nc3ccccc23)cc1 | 4820 | 4090 | 1340 | 1100 | 5060 | 880 | – | –
30 | COc1ccc(N(C)c2nc(/C=C/c3cccc(F)c3)nc3cccc(F)c23)cc1 | 490 | 390 | 220 | 400 | 430 | 210 | – | –
31 | CN(c1ccc(C(F)(F)F)cc1)c1nc(/C=C/c2ccccc2)nc2ccccc12 | > 10000 | > 10000 | > 10000 | > 10000 | > 10000 | > 10000 | – | –
32 | COc1ccc(OC)c(N(C)c2nc(/C=C/c3ccccc3)nc3ccccc23)c1 | > 10000 | > 10000 | > 10000 | > 10000 | > 10000 | > 10000 | – | –
33 | COc1ccc(N(C)c2nc(/C=C/c3cccc(OC)c3)nc3ccc(F)cc23)cc1 | 360 | 800 | 240 | 650 | 1060 | 280 | – | –
34 | COc1ccc(N(C)c2nc(/C=C/c3ccc(OC)c(OC)c3)nc3ccccc23)cc1 | 2740 | 3500 | 2730 | 1460 | 7240 | 2010 | – | –
35 | O=c1[nH]cc(F)c(=O)[nH]1 [FLUOROURACIL] | > 10000 | > 10000 | > 10000 | > 10000 | > 10000 | > 10000 | – | –
36 | COc1ccc(N(C)c2nc(/C=C/c3ccccc3)nc3ccccc23)cc1OC | 2840 | 2050 | 630 | 2850 | 7030 | 540 | – | –
37 | COc1ccc(N(C)c2nc(/C=C/c3cccc(F)c3)nc3ccc(F)cc23)cc1 | 730 | 340 | 620 | 360 | 2520 | 460 | – | –
